The results in this text go back to US10905688B2, “Combinations comprising substituted imidazo[1,5-α]pyrazinones as PDE1 inhibitors” (H. Lundbeck A/S, priority 2016, dated 2021).

Format in all cases: biochemical
Test [1] addresses PDE9 (Homo sapiens (Human), UniProt O76083). The test can be described thus: PDE9 inhibition assay, SPA with 3H-cAMP. How it is done:
A PDE9 assay may for example, be performed as follows: The assay is performed in 60 μL samples containing a fixed amount of the relevant PDE enzyme (sufficient to convert 20-25% of the cyclic nucleotide substrate), a buffer (50 mM HEPES pH 7.6; 10 mM MgCl2; 0.02% Tween20), 0.1 mg/mi BSA, 225 pCi of ^3H-labelled cyclic nucleotide substrate, tritium labeled cAMP to a final concentration of 5 nM and varying amounts of inhibitors. Reactions are initiated by addition of the cyclic nucleotide substrate, and reactions are allowed to proceed for one hr at room temperature before being terminated through mixing with 15 μL 8 mg/mL yttrium silicate SPA beads (Amersham). The beads are allowed to settle for one hr in the dark before the plates are counted in a Wallac 1450 Microbeta counter.
In the context of the present invention the assay was performed in 60 μL assay buffer (50 mM HEPES pH 7.6; 10 mM MgCl2; 0.02% Tween20) containing enough PDE9 to convert 20-25% of 10 nM ^3H-cAMP and varying amounts of inhibitors. Following a 1 hr incubation the reactions were terminated by addition of 15 μL 8 mg/mL yttrium silicate SPA beads (Amersham). The beads were allowed to settle for one hr in the dark before the plates were counted in a Wallac 1450 Microbeta counter.

The target in test [2] is PDE1A (Homo sapiens (Human), UniProt P54750). In words: PDE1 inhibition assay (PDE1A), SPA with tritium labelled cAMP. Conditions: for inhibition at 2 µM: read-out: PDE1A, % inhibition at 2 μM. How it is done:
Reactions were initiated by addition of the cyclic nucleotide substrate, and reactions were allowed to proceed for 1 h at room temperature before being terminated through mixing with 20 μL (0.2 mg) yttrium silicate SPA beads (PerkinElmer).

For test [3], the target named is PDE1C (Homo sapiens (Human), UniProt Q14123). The test can be described thus: PDE1 inhibition assay (PDE1C), SPA with tritium labelled cAMP. How it is done:
(§1) Reactions were initiated by addition of the cyclic nucleotide substrate, and reactions were allowed to proceed for 1 h at room temperature before being terminated through mixing with 20 μL (0.2 mg) yttrium silicate SPA beads (PerkinElmer). The beads were allowed to settle for 1 h in the dark before the plates were counted in a Wallac 1450 Microbeta counter.

Test [4] has as its target PDE1B (Homo sapiens (Human), UniProt Q01064). The test can be described thus: PDE1 inhibition assay (PDE1B), SPA with tritium labelled cAMP. How it is done:
as §1

Chain of PDE1C (Q14123 whole entry): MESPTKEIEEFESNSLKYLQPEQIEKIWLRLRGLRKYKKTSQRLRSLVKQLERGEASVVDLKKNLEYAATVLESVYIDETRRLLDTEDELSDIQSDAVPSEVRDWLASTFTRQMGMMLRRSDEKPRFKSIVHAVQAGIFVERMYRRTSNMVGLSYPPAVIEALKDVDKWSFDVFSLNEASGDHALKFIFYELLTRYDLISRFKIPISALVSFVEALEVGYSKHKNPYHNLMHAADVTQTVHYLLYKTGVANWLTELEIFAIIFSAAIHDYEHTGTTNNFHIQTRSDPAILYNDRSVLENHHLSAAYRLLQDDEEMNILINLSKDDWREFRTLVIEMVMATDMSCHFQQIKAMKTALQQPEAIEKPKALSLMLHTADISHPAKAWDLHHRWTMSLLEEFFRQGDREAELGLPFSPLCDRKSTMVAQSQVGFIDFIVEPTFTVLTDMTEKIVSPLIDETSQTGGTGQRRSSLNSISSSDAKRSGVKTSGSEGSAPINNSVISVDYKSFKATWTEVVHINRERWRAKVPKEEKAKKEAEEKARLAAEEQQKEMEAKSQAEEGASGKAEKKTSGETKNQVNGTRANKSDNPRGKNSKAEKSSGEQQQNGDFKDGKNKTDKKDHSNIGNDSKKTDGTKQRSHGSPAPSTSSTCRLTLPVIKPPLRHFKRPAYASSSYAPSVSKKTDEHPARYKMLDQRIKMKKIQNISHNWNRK
Chain of PDE1A (P54750 whole entry): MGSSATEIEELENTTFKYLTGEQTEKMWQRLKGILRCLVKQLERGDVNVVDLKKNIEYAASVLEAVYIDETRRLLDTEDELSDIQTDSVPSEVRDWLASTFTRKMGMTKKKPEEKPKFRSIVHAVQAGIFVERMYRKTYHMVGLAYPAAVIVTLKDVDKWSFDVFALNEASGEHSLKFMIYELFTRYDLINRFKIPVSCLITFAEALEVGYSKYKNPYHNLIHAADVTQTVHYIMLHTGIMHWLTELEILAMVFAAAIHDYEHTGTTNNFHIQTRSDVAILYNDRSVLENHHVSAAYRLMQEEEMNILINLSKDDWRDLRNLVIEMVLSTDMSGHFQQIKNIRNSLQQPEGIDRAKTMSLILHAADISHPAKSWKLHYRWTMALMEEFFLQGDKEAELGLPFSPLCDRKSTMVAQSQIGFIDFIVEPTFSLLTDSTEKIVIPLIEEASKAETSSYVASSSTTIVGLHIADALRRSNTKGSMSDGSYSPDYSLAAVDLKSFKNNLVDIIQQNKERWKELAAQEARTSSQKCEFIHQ
Chain of PDE9 (O76083 whole entry): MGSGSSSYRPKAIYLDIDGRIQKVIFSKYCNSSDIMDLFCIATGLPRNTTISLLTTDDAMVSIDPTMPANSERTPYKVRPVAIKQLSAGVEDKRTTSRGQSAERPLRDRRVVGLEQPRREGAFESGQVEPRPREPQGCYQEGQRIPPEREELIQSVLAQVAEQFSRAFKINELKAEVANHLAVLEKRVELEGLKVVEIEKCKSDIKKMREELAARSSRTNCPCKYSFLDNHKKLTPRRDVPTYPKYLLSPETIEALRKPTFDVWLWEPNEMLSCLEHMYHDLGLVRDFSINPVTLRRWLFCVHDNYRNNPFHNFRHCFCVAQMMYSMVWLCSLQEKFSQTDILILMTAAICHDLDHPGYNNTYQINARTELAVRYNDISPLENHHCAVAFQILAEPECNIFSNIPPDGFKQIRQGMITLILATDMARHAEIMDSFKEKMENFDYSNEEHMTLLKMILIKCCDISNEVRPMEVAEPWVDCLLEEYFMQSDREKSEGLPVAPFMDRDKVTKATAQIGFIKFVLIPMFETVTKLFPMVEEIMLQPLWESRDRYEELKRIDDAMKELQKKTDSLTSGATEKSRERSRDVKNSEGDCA
Chain of PDE1B (Q01064 whole entry): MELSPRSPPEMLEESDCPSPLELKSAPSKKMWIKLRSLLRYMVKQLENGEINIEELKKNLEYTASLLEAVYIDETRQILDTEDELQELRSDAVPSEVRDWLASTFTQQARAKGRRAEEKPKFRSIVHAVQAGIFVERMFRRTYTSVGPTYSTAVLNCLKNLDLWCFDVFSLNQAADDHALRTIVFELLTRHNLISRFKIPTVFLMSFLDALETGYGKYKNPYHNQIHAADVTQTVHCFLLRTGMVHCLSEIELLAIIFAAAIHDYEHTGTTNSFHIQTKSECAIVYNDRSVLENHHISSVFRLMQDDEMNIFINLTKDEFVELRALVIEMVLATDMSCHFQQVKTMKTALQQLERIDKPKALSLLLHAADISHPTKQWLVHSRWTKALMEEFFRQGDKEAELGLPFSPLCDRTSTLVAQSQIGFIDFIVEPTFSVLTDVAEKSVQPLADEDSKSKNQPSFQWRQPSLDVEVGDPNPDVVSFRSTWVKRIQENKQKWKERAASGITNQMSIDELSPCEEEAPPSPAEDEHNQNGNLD

Consider `Cc1cn2c([C@@H]3C[C@H]3F)ncc2c(=O)n1Cc1cccc(F)c1` (single isomer, unassigned; isomer 1) [38, isomer 1], for which the “% inhibition of PDE9 at 10 microM” value in test [1] was −1%.

Consider `CCc1ccccc1Cn1c(C)cn2c(C3CCOCC3)ncc2c1=O` [Example 49, 7-(2-ethylbenzyl)-6-methyl-3-(tetrahydro-2H-pyran-4-yl)imidazo[1,5-a]pyrazin-8(7H)-one], for which, in test [2], the inhibition (as a rule, the relative decrease from the control value, in per cent) at 2 µM amounted to 44%.

As to `Cc1cn2c([C@@H]3C[C@@H]3F)ncc2c(=O)n1Cc1cccc(F)c1` (single isomer, unassigned; isomer 1) [37, isomer 1], in test [3], the midpoint of inhibition, the IC50, lay at 345 nM. The “% inhibition of PDE9 at 10 microM” value in test [1] is listed as −2%.

Take `COc1ccc(Cn2c(C)cn3c([C@H]4CCO[C@@H]4C)ncc3c2=O)cc1` (single isomer, unassigned; isomer 3) [55, isomer 3]: the IC50 (usually the concentration needed to halve the response being measured) in test [4] was 3 nM.

For `Cc1cn2c(N3CCC4OCC[C@H]43)ncc2c(=O)n1Cc1cccc(F)c1` (single isomer, unassigned; isomer 1) [99, isomer 1], the IC50 is 241 nM in test [2], 134 nM in test [4] and 27 nM in test [3]. Moreover, in test [1], the “% inhibition of PDE9 at 10 microM” value came to 9%.

`Cc1cn2c(C3CCOCC3)ncc2c(=O)n1Cc1cccc(C#N)c1` [Example 45, 3-((6-methyl-8-oxo-3-(tetrahydro-2H-pyran-4-yl)imidazo[1,5-a]pyrazin-7(8H)-yl)methyl)benzonitrile]: the inhibition at 2 µM in test [2] was 64%.

`Cc1cn2c([C@H]3C[C@H]3F)ncc2c(=O)n1Cc1cccc(F)c1` (single isomer, unassigned; isomer 2) [38, isomer 2] displayed an IC50 in test [3] of 153 nM. The “% inhibition of PDE9 at 10 microM” value in test [1] worked out at 2%.

The compound `Cc1cn2c([C@H]3C[C@@H]3F)ncc2c(=O)n1Cc1cccc(F)c1` (single isomer, unassigned; isomer 2) [37, isomer 2] yielded an IC50 in test [3] of 55 nM. Besides, the “% inhibition of PDE9 at 10 microM” value in test [1] stood at 13%.

For `Cc1cn2c(N3CCC4OCC[C@@H]43)ncc2c(=O)n1Cc1cccc(F)c1` (single isomer, unassigned; isomer 2) [99, isomer 2], in test [2] (at 10 μM), the “PDE1A, % inhibition at 10 μM” value was determined as 47%. The IC50 in test [4] amounted to 760 nM; in test [3], 119 nM. Besides, the “% inhibition of PDE9 at 10 microM” value in test [1] was determined as 6%.
